Experiments:
[1] = tested on: HMVEC-L cells; test: Commercial quartz crystal microbalance (QCM), 10 MHz fundamental frequency, equivalent prior experiments; type: cell-based, human
[2] = tested on: Human Microvascular Endothelial Cells derived from Lung (HMVEC-L); test: Surface acoustic wave (SAW) device, 21 MHz, frequency and attenuation response of attached cells; type: cell-based; conditions: for sensitivity (frequency shift normalized to operating frequency and number of live attached cells): SAW 21 MHz
Procedure: An AT cut quartz wafer was prepared with electrodes for a surface acoustic wave (SAW) patterned on one side. The transmitting and receiving electrodes were composed of interdigitated (IDT) electrodes fabricated by lift off of gold deposited by electron beam evaporation. The IDTs were composed of 120 pairs of electrode fingers. This spacing corresponds to the wavelength of a SAW of 21 MHz. The sensing area between the IDTs was 20×8 mm. A 2 μm thick layer of poly(methylmethacrylate) (PMMA) was spin coated onto the surface of the SAW to serve as an insulating layer for the IDTs as well as a waveguide for the Love waves generated by the transmitting IDT.
The SAW was connected to an Agilent E5061B network analyzer, set up for transmission measurements (s12). Before liquid was added, the resonant frequency of 21 MHz was confirmed. Using Labview software, the resonant frequency and attenuation of the SAW was measured once per second during an experiment. A drop of cell media containing cells was placed in the sensing area allowing cells to attach, as described below.
The Human Microvascular Endothelial Cells derived from Lung (HMVEC-L) cell line was obtained from Lonza (Basel, Switzerland) and stock cultures were established and grown in media recommended by the manufacturers, at 37° C. in a humidity controlled incubator with 5% CO2, unless otherwise noted. The media used was EBM™-2, (CC-3156) (Lonza Basel, Switzerland) with EGM™-2-MV BulletKit™ (CC-3202) (Lonza Basel, Switzerland) containing hEGF, Hydrocortisone, GA-1000 (Gentamicin, Amphotericin-B), VEGE, hFGF-B, R3-IGF-1 and 5% FBS. The HMVEC-L cells were grown in 25 cm^2 rectangular canted neck cell culture flasks with vented caps (Corning Life Science, Lowell, Mass.), and re-fed every three days and passaged once a week using a 0.05% solution of trypsin:EGTA (Invitrogen, Carlsbad, Calif.) as stock cultures.
Two different treatments of the cells on the SAW device were carried out in separate experiments. […] All the solutions were stored at 4° C. in a refrigerator. Prior to cell plating onto the SAW device, the SAW device was cleaned by rinsing with distilled water and then UV sterilized for 30 min. After sterilization and further washing with water and Phosphate Buffered Saline (PBS), 50 μl of medium containing 20,000 HMVEC-L cells was added to the sensing area of the SAW device, which had been previously placed within a 150 mm diameter Petri dish. Smaller Petri dishes filled with reservoirs of media were placed around the central SAW device, in order to provide additional surface area for evaporation of water. The purpose of this arrangement, large volume and area reservoirs of iso-osmotic pressure media in the Petri dishes, was to prevent evaporative loss of water from the small volume of media covering the cells in the sensing area of the SAW device. The SAW device in the large covered Petri dish was located on the bench top in ambient air. The Petri dish cover was removed and cells were plated in media onto the sensing area surface of the SAW device and the HMVEC-L cells in the covered Petri dish were allowed to attach to the sensing area SAW device surface for 18 hr. Then, the media was changed with 50 μl fresh medium.

[3] = tested on: its specific growth factor receptor; conditions: stated as 'has been shown'; cited from earlier work
[4] = tested on: Human Mammary Epithelial Cells (HMECs); test: QCM (10 MHz) fundamental and third overtone frequency shift with attached cells treated with growth factor; type: cell-based; conditions: bFGF 12.5 ng/ml final; 20,000 HMEC cells on 10 MHz QCM; 300 min after addition; FIG. 6
Source text: An AT cut 0.538″ diameter quartz disk with 100 nm thick gold electrodes was used for the piezoelectric medium in this experiment. A polydimethylsiloxane (PDMS) tube with an outer diameter of 0.4″ and an inner diameter of 0.3″ and 0.3″ high was attached to one side of the quartz disk for use as a reservoir for cell media. The quartz crystal was mounted in a HC35/U holder with silver epoxy bonding between the electrodes and the gold electrodes on the crystal.
The oscillator circuitry is a Colpitts oscillator, shown in FIG. 7, modified to enable the quartz to undergo shear wave oscillations under a liquid load. The thickness of the crystal is such that an unloaded crystal oscillating in air would operate at 10 MHz. The Colpitts oscillator was tuned to only amplify frequencies in the range of 10 MHz. A second class C amplifier operating as a frequency multiplier was connected to the ungrounded electrode of the quartz crystal. The multiplier was tuned to capture the crystal's third harmonic oscillations. The output of the multiplier and the voltage at the crystal were connected to the inputs of a two channel oscilloscope. The waveforms were digitally captured using Labview software and passed through a fast Fourier transform. The frequency of the signals were captured and recorded at one minute intervals, prior to and following addition of cells to the crystal surface. […]

[5] = tested on: HMECs; conditions: bFGF added to HMECs; cited from earlier work

Question: Which results are given for `[N-]=[N+]=[N-]` [sodium azide, Sodium azide]?
Answer: equivalent sensitivity ([1]; 50 mM azide experiment): 4.1×10^−9 /cell; change in Attenuation values ([2]; 50 mM sodium azide final, 20,000 HMVEC-L cells on SAW device, FIG. 11): approximately 8 dBm; increase in frequency ([2]; 50 mM sodium azide final, 20,000 HMVEC-L cells on SAW sensing area, 4 hr after addition, FIG. 11): about 17 kHz; sensitivity (frequency shift normalized to operating frequency and number of live attached cells) ([2]; 50 mM sodium azide experiment): 5.6×10^−8 /cell

Question: For “bFGF: Basic human Fibroblast Growth Factor from Sigma, reconstituted in 50 mM Tris-HCl pH7.5”, which “time to bind and activate its specific growth factor receptor” value [3] is on record?
Answer: Its value is no more than 8 min.

Question: What about the “frequency shift of third overtone compared to the fundamental in response to the growth factor” value [4] of the same compound?
Answer: Its value is “larger frequency shift”.

Question: What about the “lag time of proliferative response (increase in thymidine incorporation)” value [5] of the same compound?
Answer: Its value is “about 21 hr”.

Question: For trypsin, which equivalent sensitivity ([1]; trypsinization experiment) is on record?
Answer: The equivalent sensitivity was 1×10^−8 /cell.

Question: What about the “abrupt increase in frequency” value ([2]; 0.05% trypsin:EGTA, cell release, 20,000 HMVEC-L cells on SAW sensing area, FIG. 12) of the same compound?
Answer: The value was “about 60 kHz”.

Question: And the “sensitivity (frequency shift normalized to operating frequency and number of live attached cells)” value ([2]; Trypsin enzymatic removal experiment)?
Answer: The value was 3.75×10^−7 /cell.

Reference: US20140087451A1, “ACOUSTIC WAVE (AW) SENSING DEVICES USING LIVE CELLS” (University of Massachusetts, priority 2010, published 2014)
